Results: patent US5462965A, “Use of heterocyclic amino-alcohol compounds for treatment of CNS diseases” (GD Searle & Co., priority 1992, dated 1995)
Like-named read-outs stand apart in the source and are kept apart here.

Key:
[1] = target: polyamine domain of the NMDA receptor-complex; experiment: Binding of [125I]ifenprodil to rat cortical membranes (polyamine domain interaction)
Procedure: The NMDA receptor-ionophore complex consists of a number of interacting domains, including one for polyamines where ifenprodil binds to exert its noncompetitive antagonism. Ifenprodil was iodinated with Na^125 I/chloramine-T, purified and its binding characterized.
(§1) Membranes were prepared from freshly dissected brains of adult male Sprague-Dawley rats (175-250 g).
^125 I]Ifenprodil: Crude membranes were prepared from freshly dissected cerebral cortices as described elsewhere [P. M. Beart et al, Neurosci. Lett., 124, 187-189 (1991)]. Briefly, assays were performed in 5 mM Tris HCl pH 7.7 containing [^125 I]ifenprodil (20,000 dpms, ~20 pM) and cortical membranes (0.5 mg wet wt.) in a final volume of 0 5 mL Incubations were for 30 min at 20° C., in triplicate, employing 12 concentrations of competing drugs. Non-specific binding was defined with 10 mM spermine. Assays were terminated by rapid filtration through GF/B filter paper and washing [Beart et al, Id., (1991)].
Binding data were analyzed by the iterative curve fitting programs EBDA and LIGAND as fully described elsewhere [Beart et al, Id., (1989)].

NMDA receptor complex = settings: [3H]TCP and [3H]dizocilpine (MK-801); cited from earlier work
[2] = test system: NMDA receptor-ionophore complex (polyamine domain / NMDA ionophore); experiment: Spermidine (polyamine)-stimulated [3H]TCP binding, functional model of coupling of the polyamine domain to the NMDA ionophore; settings: spermidine-stimulated [3H]TCP binding, rat cortex; for IC50: at least two independent experiments
Procedure: Polyamine-stimulated [^3 H]TCP: Crude synaptic ("buffy coat") membranes were prepared from freshly dissected cerebral cortices. Membrane preparations were extensively washed employing 3 freeze-thaw cycles. The final pellet was stored at -70° C. for 1-7 days prior to assay. On the day of assay, the membrane pellet was washed twice by resuspension and centrifugation (45,000 g, 10 min. ). […] Assays were terminated by rapid vacuum filtration through GF/B filter paper (pre-soaked in 0.5% aqueous polyethyleneimine) in a Brandel M-48R Cell Harvester and thorough washing with ice-cold 5 mM Tris HCl pH 7.7.

sigma site [3] = experiment: Sigma site binding: inhibition of R(+)-[3H]3-PPP binding; design: species or system rat; settings: for affinity for the high affinity sigma site / inhibition of binding of R(+)-[3H]3-PPP / model describing the interaction with the site labelled by R(+)-[3H]3-PPP: in words; for affinity for the high affinity sigma site: computer-assisted analyses
Procedure: as §1
R(+-^3 H]3-PPP: Crude membranes were prepared from whole brain (minus cerebellum) as described previously [P. M. Beart et al, J. Neurochem., 53, 779-788 (1989)]. A filtration binding assay was employed under similar conditions to those of Largent et al (1986) with 3 nM R (+)-[^3 H]-3-PPP and a 90 min. incubation at 25° C. (Beart et al, 1989). Non-specific binding was defined with 10 μ1,3-di(2-tolyl)guanidine (DTG).
Binding data were analyzed by the iterative curve fitting programs EBDA and LIGAND as fully described elsewhere [Beart et al, Id., (1989)]. Results obtained from experiments examining spermidine-stimulated binding of ^3 H]TCP were analyzed by the program FLEXIFIT [V. Guardabasso et al, FASEB J., 2, 209-215 (1988)] which iteratively fits data to a sigmoidal model providing estimates of IC50 and slope for the drug under study.

[4] = in certain cases and mostly high doses; cited from earlier work
NMDA receptor = settings: C. Carter et al, 1988; cited from earlier work
sigma site [5] = settings: P. C. Contreras et al, 1990; cited from earlier work
sigma site [6] = settings: J. Benavides et al, 1990; cited from earlier work
[7] = Arch. Int. Pharm., 1983; cited from earlier work
[8] = n=4 (spermine), n=3 (spermidine), read-out: dissociation constants for spermine and spermidine (inhibition of specific [125I]ifenprodil binding)
[9] = rat cortical membranes, mean ± s.e.m., n = 3 or 4, read-out: [125I] IFENPRODIL Kd
[10] = one site fit, *one experiment, read-out: KG = Dissociation constant for one site fit
[11] = two site fit, value in parentheses (exception to better 2 site fit)
[12] = two site fit, value in parentheses (exception to better 2 site fit), read-out: KH = Dissociation constant at high affinity site for two site fit
[13] = two site fit, value in parentheses (exception to better 2 site fit), read-out: KL = Dissociation constant at low affinity site for two site fit
[14] = one site fit, pooled data, n = 2 independent experiments, read-out: KG = Dissociation constant for one site fit
[15] = two site fit, fitted better to 2 site model (P < 0.05)
[16] = two site fit, fitted better to 2 site model (P < 0.05), read-out: KH = Dissociation constant at high affinity site for two site fit
[17] = two site fit, fitted better to 2 site model (P < 0.05), read-out: KL = Dissociation constant at low affinity site for two site fit

NCCCCNCCCN [spermidine, reference compound]
Kd [1, 8]: 44 µM | effect on binding of channel ligands (NMDA receptor complex): profoundly enhance the binding of channel ligands

CC(NCCCCOc1ccccc1)C(O)c1ccc2c(c1)CCCS2 (centres unmarked) [Compound 24]
Kd [1, 9]: 3.7 ± 1.1 µM | SPERMIDINE [3H] TCP IC50 (class symbol: inhibitory at 50 μM) [2]: + | Kd (sigma site [3]; [10]): 0.39 µM | % RH = Percent of high affinity binding sites for two site fit (sigma site [3]; [11]): 63% | Kd (sigma site [3]; [12]): 0.089 µM | Kd (sigma site [3]; [13]): 3 µM

CC(CCCc1ccccc1)NC(C)C(O)c1ccc2c(c1)CCCS2 (centres unmarked) [Compound 42]
Kd [1, 9]: 2.7 ± 0.4 µM | SPERMIDINE [3H] TCP IC50 (class symbol: inhibitory at 50 μM) [2]: +

CC(NCCCCc1ccccc1)C(O)c1ccc2c(c1)CCCS2 (centres unmarked) [Compound 2]
Kd [1, 9]: 9.3 ± 5.5 µM | SPERMIDINE [3H] TCP IC50 (class symbol: inhibitory at 50 μM) [2]: + | Kd (sigma site [3]; [10]): 0.4 µM | % RH = Percent of high affinity binding sites for two site fit (sigma site [3]; [11]): 72% | Kd (sigma site [3]; [12]): 0.15 µM | Kd (sigma site [3]; [13]): 4.3 µM

OC(CNC1CCCCCC1)c1ccc2c(c1)CCC2 (centres unmarked) [1-(5-indanyl)-2-amino-N-cycloheptyl-ethanol]
CNS-activity [4]: in certain cases and mostly high doses posess a CNS-activity

C=CCN1CCC2(C)c3cc(O)ccc3CC1C2C (single isomer, unassigned; (+)) [(+)SKF10.047, N-allylnormetazocine, reference compound]
Kd (sigma site [3]; [14]): 1.5 µM | % RH = Percent of high affinity binding sites for two site fit (sigma site [3]; [15]): 60% | Kd (sigma site [3]; [16]): 0.048 µM | Kd (sigma site [3]; [17]): 6.3 µM

CC(NCCCCc1ccccc1)C(O)c1ccc2c(c1)CCS2 (single isomer, unassigned) [Compound 184]
Kd [1, 9]: 6.3 ± 1.8 µM | SPERMIDINE [3H] TCP IC50 (class symbol: inhibitory at 50 μM) [2]: + | affinity for the high affinity sigma site (sigma site [3]): appreciable affinity | Kd (sigma site [3]; [14]): 0.23 µM | % RH = Percent of high affinity binding sites for two site fit (sigma site [3]; [15]): 54%

CC(C(O)c1ccc2c(c1)CCS2)N1CCC(Cc2ccccc2)CC1 (centres unmarked) [Compound 186]
Kd [1, 9]: 6.7 ± 1.1 µM | SPERMIDINE [3H] TCP IC50 (class symbol: inhibitory at 50 μM) [2]: + | inhibition of binding of R(+)-[3H]3-PPP (sigma site [3]): very potent inhibitors | Kd (sigma site [3]; [14]): 0.03 µM | % RH = Percent of high affinity binding sites for two site fit (sigma site [3]; [11]): 72% | Kd (sigma site [3]; [12]): 0.0029 µM | Kd (sigma site [3]; [13]): 0.6 µM

NCCCNCCCCNCCCN [spermine, reference compound]
dissociability of [125I]ifenprodil specific binding ([1]; 1 mM spermine): dissociable | Kd [1, 8]: 24 µM | effect on binding of channel ligands (NMDA receptor complex): profoundly enhance the binding of channel ligands

OC(CN1CCN(Cc2ccccc2)CC1)c1ccc2c(c1)CCC2 (centres unmarked) [1-(5-indanyl)-2-amino-N-phenylmethylpiperazinoethanol]
CNS-activity [4]: in certain cases and mostly high doses posess a CNS-activity

OC(CN1CCC(Cc2ccc(F)cc2)CC1)c1ccc(Cl)cc1 (centres unmarked) [SL82.0715, reference compound]
dissociability of [125I]ifenprodil specific binding ([1]; 16.7 μM SL 82.0715): poorly dissociable | Kd ([1]; n=3, read-out: dissociation constant of SL82.0715 ([125I]ifenprodil binding)): 2.3 ± 0.13 µM | Kd [1, 9]: 2.3 ± 0.1 µM

1-(4chlorophenyl)-2-[1-(4-fluorophenyl)piperidinyl]ethanol
NMDA receptor antagonism (NMDA receptor): noncompetitive NMDA receptor antagonists

CC(NCCCc1ccccc1)C(O)c1ccc2c(c1)CCCS2 (centres unmarked) [Compound 75]
Kd [1, 9]: 5 ± 1.4 µM | SPERMIDINE [3H] TCP IC50 (class symbol: inhibitory at 50 μM) [2]: + | Kd (sigma site [3]; [14]): 0.34 µM | % RH = Percent of high affinity binding sites for two site fit (sigma site [3]; [15]): 67% | Kd (sigma site [3]; [16]): 0.086 µM | Kd (sigma site [3]; [17]): 4.3 µM

CC(NCCCCc1ccccc1)C(O)c1ccc2c(c1)CCS2 (single isomer, unassigned) [Compound 185]
Kd [1, 9]: 3.5 ± 1.1 µM | IC50 [2]: 59 µM | inhibition of binding of R(+)-[3H]3-PPP (sigma site [3]): very potent inhibitors | affinity for the high affinity sigma site (sigma site [3]): appreciable affinity | Kd (sigma site [3]; [14]): 0.032 µM | % RH = Percent of high affinity binding sites for two site fit (sigma site [3]; [11]): 63% | Kd (sigma site [3]; [12]): 0.0046 µM | Kd (sigma site [3]; [13]): 0.3 µM

CCCCN(C)CC(O)c1ccc2c(c1)CCC2 (centres unmarked) [1-(5-indanyl)-2-amino-N,N-n-butyl-methylethanol]
CNS-activity [4]: in certain cases and mostly high doses posess a CNS-activity

CC(C(O)c1ccc(O)cc1)N1CCC(Cc2ccccc2)CC1 (centres unmarked) [Ifenprodil, reference compound]
Kd [1, 9]: 0.15 ± 0.03 µM | IC50 [2]: 6.8 µM | model describing the interaction with the site labelled by R(+)-[3H]3-PPP (sigma site [3]): better described by a two-site model | Kd (sigma site [3]; [14]): 0.02 µM | % RH = Percent of high affinity binding sites for two site fit (sigma site [3]; [15]): 82% | Kd (sigma site [3]; [16]): 0.011 µM | Kd (sigma site [3]; [17]): 19 µM | NMDA receptor antagonism (NMDA receptor): noncompetitive NMDA receptor antagonists | affinity for the sigma site in vitro (sigma site [5]): considerable affinity | sigma binding affinity in vivo (sigma site [6]): Sigma binding affinity has also been found in vivo

C[C@H](NCCCCc1ccccc1)[C@@H](O)c1ccc2c(c1)CCS2 (relative stereo) [Compound 183]
Kd [1, 9]: 9.3 ± 5.4 µM | SPERMIDINE [3H] TCP IC50 (class symbol: inhibitory at 50 μM) [2]: + | Kd (sigma site [3]; [14]): 0.45 µM | % RH = Percent of high affinity binding sites for two site fit (sigma site [3]; [11]): 84% | Kd (sigma site [3]; [12]): 0.3 µM | Kd (sigma site [3]; [13]): 130 µM

C[C@H](NCCCCc1ccccc1)[C@H](O)c1ccc2c(c1)CCS2 (relative stereo) [Compound 7]
Kd [1, 9]: 3.6 ± 0.3 µM | IC50 [2]: 8.2 µM | affinity for the high affinity sigma site (sigma site [3]): appreciable affinity | Kd (sigma site [3]; [14]): 0.17 µM | % RH = Percent of high affinity binding sites for two site fit (sigma site [3]; [15]): 66% | Kd (sigma site [3]; [16]): 0.044 µM | Kd (sigma site [3]; [17]): 11 µM | antihypertensive effect [7]: antihypertensive effect | anxiolytic activity [7]: anxiolytic activity

CC(C(O)c1ccc2c(c1)CCCS2)N1CCC(Cc2ccccc2)CC1 (centres unmarked) [Compound 26]
Kd [1, 9]: 12 µM

CC(CCc1ccccc1)NC(C)C(O)c1ccc(O)cc1 (centres unmarked) [Nylidrin, reference compound]
Kd [1, 9]: 30 ± 8.5 µM | IC50 [2]: 73 µM | model describing the interaction with the site labelled by R(+)-[3H]3-PPP (sigma site [3]): better described by a two-site model | Kd (sigma site [3]; [14]): 0.038 µM | % RH = Percent of high affinity binding sites for two site fit (sigma site [3]; [15]): 86% | Kd (sigma site [3]; [16]): 0.019 µM | Kd (sigma site [3]; [17]): 11 µM
